According to patent US20040029208A1, “Assay method and kit for testing biological material for exposure to stress using biomarkers” (priority 2000, published 2004):

Key:
Assay type in all cases: in vivo
Lólium perénne [1] = test: TLC plant biomarker pattern after herbicide spraying (greenhouse)
Centauréa cýanus [2] = test: as above
Anagallis arvensis [3] = test: as above
Experimental: (§1) The experiments were performed in the green-house at the National Environmental Research Institute, Silkeborg, Denmark. All the seeds needed light to germinate, and were sown at the soil surface in individual 11 cm pots. The soil used during the experiments contained: (SM Growing Mould (Growing medium by special soil (sphagnum) added clay granulate), 0-30 mm; grade of turnover 55-75; added per m^3: 3 kg lime (white chalk), 1.5 kg dolit chalk, 40 kg clay granulate; Fertilizer added granulate: NO3-N: 55.0 g; NH4-N: 65.0 g; P: 106.6 g; K: 224.0 g; Mg: 22 g; Micro nutrients added in chelate form, Mo in uorganic form: B-Boron: 1 g; Cu-copper: 6 g; Mn-Manganese: 3 g; Zinc-Zn: 3 g: Fe-iron: 6 g; Mo- molybdenum: 1.4 g).
(§2) During the experiments plants were watered from below, and the temperature in the green-house was maintained between 15° C. and 25° C. with variations due to external weather, and the photoperiod was 16th daylight. The green-house is divided into different units, which allowed for the separate maintenance of the control plants from the sprayed plants to avoid undesirable effects due to vapour drift.
(§3) Glyphosate (Roundup Bio (360 g L^−1) was supplied by Monsanto Denmark A/S. Recommended field dose=1,44 kg a.i. ha^−1. In all the experiments, an automatic sprayer (designed in Denmark by Jens Kristensen 1994) was used where the herbicide application is achieved by moving boom equipment with two ordinary hydraulic flat fan nozzles (Hardi 4110-16). Two pots per spray event were placed in the middle of the spray chamber at 50 cm distance from the nozzle, delivering 200 L of water per-hectare with a desired herbicide concentration (working pressure 2 bars; speed of spray boom=4.7 km h^−1). The spraying was performed starting with the lowest concentration first, progressing towards the highest concentration. Between each herbicide, the sprayer was thoroughly rinsed several times with water. The control plants were sprayed with water.
(§4) The fresh plant material was pressed using a hand press. The extract was immediately centrifuged. (3000 rpm) for 10 minutes. The supernatant was used for analysis. The extracts were kept cool or right above 0° C. during the test to avoid decomposition of biomarkers.
(§5) Freeze-dried plant material was crushed and 250 mg was extracted with 5.00 ml 75% ethanol in an ultrasonic bath for 2 hours. The temperature was kept <0° C. (using ice) during the extraction to avoid decomposition of biomarkers. The extract was centrifuged (3000 rpm) for 10 minutes. The supematant was used for analysis and were kept cool during the test to avoid decomposition of biomarkers.
(§6) The two extracts (freshtfresh ethanol) were applicated immediately on a TLC plate (10 μl on both TLC-Plate types (see below) using cool air-drying. The 75% ethanolic extract was applicated 10 μl on Silica-gel TLC-plates and 5 μl on Cellulose TLC-plates (see below). The fresh/fresh ethanolic extractsare recommended to perform if fresh plant material are to be analysed (field-test). The freeze-dried or frozen plant material extraction Is recommended if the analysis are performed in the laboratory.
[…] Derivatisation: Stock solution 1:50% sulfuric acid in 96% ethanol; Stock solution 2: 2% vanillin in absolut alcohol; Derivatisation-solvent, Fresh produced before us, stock solution 1 and stock solution 2 (1:10); Aftercare: 120° C. in 2-3 min. The plate is valuated visually. The system detects higher alcoholics, phenolic compounds, steroids and etheric oils (Stahl 1969), terpenoids, phenyl propanolds, phenolic compounds (Wagner etea. 1984)
TLC-System 7: HPTLC-Alufolie Silica Gel 60 F2u, Merck 1.05548 (10×10 cm); 10 μl plant extracts plants exposed to glyphosate and control plants; eluted in n-butanol: acetic acid: water (4:1:5) (upper phase after 5 minutes shaking). Derivatisation: 0,5 g p-anisaldehyde diluted in 10 ml conc. acetic acid and 85 ml absolute alcohol is and 5 ml conc. sulfuric acid (added in the following row). The plate is heated to. […]

Lólium perénne [4] = test: as above; details: TLC 1 (non-specific compounds)
Experimental: as §1, §2, §3, §4, §5, §6
(§7) TLC-System 1: HPTLC-Alufolie Silica Gel 60 F254, Merck 1.05548 (10×10 cm); 10 μl plant extracts plants exposed to glyphosate and control plants; eluted in n-butanol acetic acid: water (4:1:5) (upper phase after 5 minutes shaking). Derivatisation: Stock solution 1:50% sulfuric acid in 96% ethanol; Stock solution 2: 2% vanillin in absolut alcohol; Derivatisation-solvent, Fresh produced before us, stock solution 1 and stock solution 2 (1:10); Aftercare: 120° C. in 2-3 min. The plate is valuated visually. The system detects higher alcoholics, phenolic compounds, steroids and etheric oils (Stahl 1969), terpenoids, phenyl propanolds, phenolic compounds (Wagner etea. 1984) […]

Centauréa cýanus [5] = test: Visual effect rating (0-9) after herbicide spraying
Description: (§8) Four, eight, sixteen and thirty two days after spraying, visual effects on plants were noted before harvest, using the rating chart described in Hamil. et al. (1977) and Boutin et al. (1993); a rating of zero indicates full growth and vigour, and a rating of nine indicates no growth/mortality.
(§9) The min. visual effect (VE) of the presence of plant biomarkers is rated as described by Hamil et al., (1977) and Boutin et al. (1993).

Plantágo lanceoláta [6] = test: as above
Description: as §8, §9

Lólium perénne [7] = test: as above
Description: as §8, §9

Anagallis arvensis [8] = test: as above; details: at presence of TLC 7 biomarker
Description: as §8, §9

Plantágo lanceoláta [9] = test: TLC plant biomarker pattern after herbicide spraying (greenhouse)
Experimental: as §1, §2, §3, §4, §5, §6, §7

[10] = at presence of TLC 4d biomarker

Bromoxynil
Min. of label dose of herbicide with effect (Lólium perénne [1]; TLC 6 (lipids and terpens)): 10%
Min. of label dose of herbicide with effect (Centauréa cýanus [2]; TLC 2 (phenolic compounds)): 10%
Min. of label dose of herbicide with effect (Centauréa cýanus [2]; TLC 7 (non-specific compounds)): 1%
Min. of label dose of herbicide with effect (Anagallis arvensis [3]; TLC 6 (lipids and terpens)): 1%
Min. of label dose of herbicide with effect (Anagallis arvensis [3]; TLC 7 (non-specific compounds)): 1%
Min. of label dose of herbicide with effect (Lólium perénne [4]): 1%

CCC(CC)Nc1c([N+](=O)[O-])cc(C)c(C)c1[N+](=O)[O-] [Pendimethalin]
Days after exposure (biomarker present) (Lólium perénne [1]; TLC 7 (non-specific compounds)): 8, 16 days
Min. of label dose of herbicide with effect (Lólium perénne [1]; TLC 7 (non-specific compounds)): 1%
Days after exposure (biomarker present) (Lólium perénne [1]; TLC 4d (amino acids)): 4, 8, 16, 32 days
Min. of label dose of herbicide with effect (Lólium perénne [1]; TLC 4d (amino acids)): 1%
Min. of label dose of herbicide with effect (Centauréa cýanus [2]; TLC 2 (phenolic compounds)): 1%
Min. of label dose of herbicide with effect (Centauréa cýanus [2]; TLC 4d (amino acids)): 1%
Min. of label dose of herbicide with effect (Anagallis arvensis [3]; TLC 1 (non-specific compounds)): 10%
Min. of label dose of herbicide with effect (Anagallis arvensis [3]; TLC 7 (non-specific compounds)): 10%
Min. of label dose of herbicide with effect (Anagallis arvensis [3]; TLC 4d (amino acids)): 1%
Min. visual effect (Centauréa cýanus [5]; at presence of TLC 2 biomarker): 0
Min. visual effect (Centauréa cýanus [5]; [10]): 0
Min. visual effect (Plantágo lanceoláta [6]; at presence of TLC 2 biomarker): 0
Min. visual effect (Plantágo lanceoláta [6]; at presence of TLC 6 biomarker): 0
Min. visual effect (Plantágo lanceoláta [6]; [10]): 0
Min. visual effect (Lólium perénne [7]; at presence of TLC 7 biomarker): 0
Min. visual effect (Lólium perénne [7]; [10]): 0
Min. visual effect (Anagallis arvensis [8]): 3
Min. of label dose of herbicide with effect (Plantágo lanceoláta [9]; TLC 2 (phenolic compounds)): 1%
Min. of label dose of herbicide with effect (Plantágo lanceoláta [9]; TLC 6 (lipids and terpens)): 1%
Min. of label dose of herbicide with effect (Plantágo lanceoláta [9]; TLC 4d (amino acids)): 1%

COC(=O)c1ccccc1S(=O)(=O)NC(=O)Nc1nc(C)nc(OC)n1 [Metsulfuron methyl]
Min. of label dose of herbicide with effect (Lólium perénne [1]; TLC 6 (lipids and terpens)): 10%
Min. of label dose of herbicide with effect (Lólium perénne [1]; TLC 7 (non-specific compounds)): 10%
Min. of label dose of herbicide with effect (Centauréa cýanus [2]; TLC 2 (phenolic compounds)): 1%
Min. of label dose of herbicide with effect (Centauréa cýanus [2]; TLC 6 (lipids and terpens)): 1%
Min. of label dose of herbicide with effect (Centauréa cýanus [2]; TLC 7 (non-specific compounds)): 1%
Min. of label dose of herbicide with effect (Centauréa cýanus [2]; TLC 4d (amino acids)): 1%
Min. of label dose of herbicide with effect (Anagallis arvensis [3]; TLC 7 (non-specific compounds)): 1%
Min. visual effect (Centauréa cýanus [5]; at presence of TLC 6 biomarker): 0
Min. visual effect (Centauréa cýanus [5]; at presence of TLC 7 biomarker): 0
Min. visual effect (Plantágo lanceoláta [6]; at presence of TLC 1 biomarker): 0
Min. visual effect (Plantágo lanceoláta [6]; at presence of TLC 2 biomarker): 0
Min. visual effect (Plantágo lanceoláta [6]; at presence of TLC 6 biomarker): 2
Min. visual effect (Plantágo lanceoláta [6]; at presence of TLC 7 biomarker): 3
Min. visual effect (Lólium perénne [7]; at presence of TLC 1 biomarker): 0
Min. visual effect (Lólium perénne [7]; at presence of TLC 6 biomarker): 0
Min. visual effect (Lólium perénne [7]; at presence of TLC 7 biomarker): 0
Min. visual effect (Lólium perénne [7]; [10]): 0
Min. visual effect (Anagallis arvensis [8]): 1
Min. of label dose of herbicide with effect (Plantágo lanceoláta [9]; TLC 1 (non-specific compounds)): 1%
Min. of label dose of herbicide with effect (Plantágo lanceoláta [9]; TLC 2 (phenolic compounds)): 1%
Min. of label dose of herbicide with effect (Plantágo lanceoláta [9]; TLC 6 (lipids and terpens)): 10%
Min. of label dose of herbicide with effect (Plantágo lanceoláta [9]; TLC 7 (non-specific compounds)): 10%
Min. of label dose of herbicide with effect (Plantágo lanceoláta [9]; TLC 4d (amino acids)): 1%
